From patent publication US10501452B2, “Lactam compound derivative and application thereof” (NHWA PHARMA. CORPORATION, priority 2015, dated 2019) come the findings set out here.

One data set has as its target 5-HT1A (Rattus norvegicus (Rat), UniProt P19327). Put plainly: 5-HT1A receptor binding assay (3H-8-OH-DPAT). Here is the method: Rats were decapitated. […] Incubation at 37° C. was conducted for 10 min. […] Centrifugation was conducted and repeated 3 times.
(§1) Materials for the Receptor Binding Assay

In the next data set the target is 5-HT7 receptor (Rattus norvegicus (Rat), UniProt P32305). The experiment in a line: 5-HT7 receptor binding assay ([3H]-5-CT). Here is the method:
Adult SD rats were decapitated. […] Centrifugation was conducted (repeated 3 times).
as §1

Another data set has as its target Histamine H1 receptor (Cavia porcellus (Guinea pig), UniProt P31389). The experiment in a line: Histamine H1 receptor binding assay (3H-pyrilamine). As for the experimental part: Preparation of Histamine H1 Receptor Membrane
Guinea pigs were decapitated. […] Vortex mixer was used for blending. Centrifugation was conducted at 48000 g, 4° C. for 10 min. The supernatant was discarded to give pellets, and buffer was added again for washing. Centrifugation was conducted and repeated 3 times.
as §1
(2) 100 μL of membrane preparation was added into each reaction tube.

Data set [1] relates to Apomorphine induced clambering in mice. Put plainly: Apomorphine induced clambering assay of mice. The class given is in vivo. Here is the method: Healthy KM mice, male, with body weight of 18-22 g, were provided by Qinglongshan Animal Cultivation Center, Nanjing.
Apomorphine provided by Sigma Company was dissolved in 0.9% NaCl (containing 0.1% vitamin C) before use, and was freshly formulated before use.
Vitamin C, F20061113, was provided by Sinopharm Chemical Reagent Co. Ltd.
Instruments: self-made clambering cage, chronograph.
Procedures: apomorphine induced clambering assay of mice
After 5 min of adaptation, the behavior of the mice at 10-11, 20-21, and 30-31 min after the injection of apomorphine were observed and scored.

The test system of data set [2] is conditioned avoidance response in rats. Put plainly: animal or person. The class given is in vivo, rat. As for the experimental part:
[…] of SD rats, male.
Firstly, training the rats with shuttle box:
(1) The rats were allowed for adaption for five minutes;
(2) Conditioned stimulus (CS, light and noise) were started and lasted for 20 s, and at the tenth second, unconditioned stimulus (US, 1.5 mA electric shock) was performed and lasted for 10 s;
(3) Training was conducted 30 times per day for 9 days. The interval between two trainings was set randomly ranged from 20 to 30 s;
(4) Observation indicators:
The animal ran to another compartment during the conditioning stimulus was recorded as “avoidance”;
Animals ran to another compartment during the electric shock was recorded as “escape”;
Grouping of the qualified rats: the qualified rats were divided into negative control group, positive drug groups of each dosage, and compound groups of each dosage according to the principle of randomization, 8 in each group.
Administration Method: Corresponding solvent was administered intragastrically to the negative control group; corresponding dosages of positive drugs were administered intragastrically to the positive drug groups of each dosage; and corresponding dosages of compounds were administered intragastrically to the compound groups of each dosage.
CAR Assay: A CAR assay was performed 1 hour after intragastric administration. The method was the same as the CAR training. The observation indicators were the number of avoidances, the number of escapes, and the number of escape failures.
Statistical Data Processing: Assay data are presented as mean±standard deviation (Mean±SD), the comparison was performed by a combination of one-way ANOVA with post-hoc LSD. The ED50 was calculated using the probit method.

Another data set is described as follows: in vivo. The conditions noted are these: both, Kunming, mouse, in vivo, po. As for the experimental part:
(§2) The durations of the mice to maintain the posture with the two forepaws on the bars were recorded, and 30 s of spasticity without moving was considered as the positive response. In the case the forepaws of the mice were not put down persistently, the observation was terminated at 60 s. The numbers of animals with positive response in each of the compound dosage groups were counted.

Another data set deals with catalepsy in mice. The experiment in a line: in vivo. The note with it: mouse, in vivo. As for the experimental part:
as §2

Data set [3] in a line: Acute toxicity study (mice). The note with it: both sexes, KM, mouse, in vivo, po, intragastric. The format is in vivo. As for the experimental part:
(§3) Example 41: Acute Toxicity Study
(§4) Limit test of sequential assay: KM rats or mice (half male and half female) were randomly divided into several groups (with 2-5 mice in each group), which were respectively the 2000 mg/kg groups for each compound, and the solvent group. 0.2 ml/10 g were administered intragastrically. The deaths of the animals in 3 days were observed. In the case 3 or more animals survived in 3 days without notable abnormity in their life states, the observation was continued until the assay was completed in 7 days. In the case 3 or more animals died in 3 days, the method of median lethal dose was used to determine the LD50.
(§5) Pre-assay for the method of the median lethal dose: KM mice (half male and half female) were randomly divided into several groups (with 4 mice in each group), which were respectively the 500 mg/kg, 200 mg/kg, 50 mg/kg groups for each compound, and the solvent group. 0.2 ml/10 g were administered intragastrically, and the deaths of the animals in 1-3 days were observed.
(§6) Results: The compound of the invention has relatively low acute toxicity.

In another data set the test system is mice. The experiment in a line: Acute toxicity study (mice). The class given is in vivo. The conditions noted are these: intragastric. Here is the method: as §3, §4, §5, §6
A short description of data set [4]: Acute toxicity study (rats). The note with it: both sexes, KM, in vivo, po, 2000 mg/kg; rat, intragastric. As for the experimental part:
as §3, §4, §6

The next data set deals with 5-HT2A (Rattus norvegicus (Rat), UniProt P14842). Put plainly: 5-HT2A receptor binding assay ([3H]-Ketanserin).
Sequence of 5-HT2A (P14842 whole entry): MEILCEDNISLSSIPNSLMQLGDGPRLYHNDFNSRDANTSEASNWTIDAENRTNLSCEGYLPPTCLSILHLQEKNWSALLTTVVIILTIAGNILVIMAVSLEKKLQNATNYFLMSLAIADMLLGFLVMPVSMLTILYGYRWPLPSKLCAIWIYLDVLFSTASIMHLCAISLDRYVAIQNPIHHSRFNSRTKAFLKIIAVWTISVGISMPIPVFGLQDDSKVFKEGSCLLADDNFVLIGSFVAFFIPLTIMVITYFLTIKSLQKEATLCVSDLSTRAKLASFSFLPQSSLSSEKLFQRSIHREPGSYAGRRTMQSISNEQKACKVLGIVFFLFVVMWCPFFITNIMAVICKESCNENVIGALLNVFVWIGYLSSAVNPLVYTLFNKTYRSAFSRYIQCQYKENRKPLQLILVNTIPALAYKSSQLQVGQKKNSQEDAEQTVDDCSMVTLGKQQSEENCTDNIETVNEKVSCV

Some results are limits rather than exact numbers.

Sequence of Histamine H1 receptor (P31389 whole entry): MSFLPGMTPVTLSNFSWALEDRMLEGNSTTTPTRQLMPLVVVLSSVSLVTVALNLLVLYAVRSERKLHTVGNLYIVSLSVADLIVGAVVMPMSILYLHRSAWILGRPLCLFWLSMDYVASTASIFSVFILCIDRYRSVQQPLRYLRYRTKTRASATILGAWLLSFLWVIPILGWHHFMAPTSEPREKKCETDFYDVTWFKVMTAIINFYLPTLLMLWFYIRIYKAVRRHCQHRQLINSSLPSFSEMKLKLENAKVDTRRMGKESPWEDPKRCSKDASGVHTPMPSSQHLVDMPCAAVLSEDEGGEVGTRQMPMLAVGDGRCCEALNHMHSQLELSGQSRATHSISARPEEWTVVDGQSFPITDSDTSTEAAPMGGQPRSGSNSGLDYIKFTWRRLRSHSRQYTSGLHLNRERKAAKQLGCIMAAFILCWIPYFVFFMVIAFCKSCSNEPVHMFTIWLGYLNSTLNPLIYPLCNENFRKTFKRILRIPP
Sequence of 5-HT1A (P19327 whole entry): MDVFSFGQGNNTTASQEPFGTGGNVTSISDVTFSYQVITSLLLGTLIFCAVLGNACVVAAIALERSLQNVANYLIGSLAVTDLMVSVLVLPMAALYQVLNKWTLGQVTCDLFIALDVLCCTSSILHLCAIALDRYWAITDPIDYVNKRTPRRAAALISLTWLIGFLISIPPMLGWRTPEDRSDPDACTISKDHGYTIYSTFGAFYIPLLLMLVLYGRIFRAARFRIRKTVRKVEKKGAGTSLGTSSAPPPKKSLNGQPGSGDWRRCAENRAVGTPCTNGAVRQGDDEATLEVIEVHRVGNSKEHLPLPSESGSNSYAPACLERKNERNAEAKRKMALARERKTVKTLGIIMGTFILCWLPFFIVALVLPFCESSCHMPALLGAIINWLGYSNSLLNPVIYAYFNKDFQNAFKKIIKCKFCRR
Sequence of 5-HT7 receptor (P32305 whole entry): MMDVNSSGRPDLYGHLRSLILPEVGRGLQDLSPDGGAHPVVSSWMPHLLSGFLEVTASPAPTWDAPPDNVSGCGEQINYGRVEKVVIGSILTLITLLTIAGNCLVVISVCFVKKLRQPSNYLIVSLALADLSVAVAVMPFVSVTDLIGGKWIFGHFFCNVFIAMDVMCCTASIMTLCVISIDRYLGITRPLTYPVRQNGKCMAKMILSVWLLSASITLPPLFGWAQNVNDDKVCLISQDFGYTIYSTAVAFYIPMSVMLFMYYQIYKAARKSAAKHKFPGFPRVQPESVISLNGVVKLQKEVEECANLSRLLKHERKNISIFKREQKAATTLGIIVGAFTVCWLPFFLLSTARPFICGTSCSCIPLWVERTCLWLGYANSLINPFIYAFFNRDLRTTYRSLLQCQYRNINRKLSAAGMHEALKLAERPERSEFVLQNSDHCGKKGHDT
Experimental for 5-HT2A: Rats were decapitated. Cortex of brain was rapidly taken on ice, and 3 ml of buffer (0.05 M Tris-HCl buffer: 6.05 g of Tris was dissolved in 1000 ml of double-distilled water, and concentrated HCl was used to adjust to pH 7.5) was added, homogenization was conducted, and then 5 ml of buffer was added. Incubation was conducted at 37° C. for 10 min, the weight of the tubes were adjusted using a balance after incubation. Centrifugation was conducted at 12000 rpm, 4° C. for 20 min, the supernatant was discarded, and 3 ml of buffer was added. Vortex mixer was used for blending, and then 5 ml of buffer was added. Centrifugation was conducted (repeated 3 times). After the centrifugation, the supernatant was discarded, and the pellets were stored at −80° C. for future use.
(1) The prepared membrane was applied with buffer, and homogenizer was used for evenly dispersing. 15 tubes were mixed into a 100 ml container, and appropriate amount of buffer was added to give 50 ml of membrane suspension, which was reserved for future use.
(2) 100 μL of membrane preparation and 100 μL of buffer were added into each reaction tube.
(3) 100 μL of buffer was added into the total binding tube (TB), 100 μL of Methysergide (final concentration 10^−5M) was added into the nonspecific binding tube (NB), 100 μL of the test compound (final concentration 10^−5M) was added into the specific binding tube (SB) of each test compound.
(5) Each of the reaction tubes was incubated at 37° C. for 15 min. After the reaction was completed, the bound ligands were rapidly filtered under reduced pressure, and sufficiently washed with ice-chilled assay buffer. The filter was taken out and put into a 3 ml scintillation vial, and 2 ml of toluene scintillation cocktail was added and blended.
(6) The scintillation vial were put into Liquid Scintillation Counter for counting. Inhibition rate(I%)=(Total binding tube cpm−compound cpm)/(Total binding tube cpm−nonspecific binding tube cpm)×100%

Broadly, the Ki is the dissociation constant of the complex between target and ligand, obtained from inhibition or displacement. In general, LD50 refers to the dose expected to kill half of the subjects tested. Take `CN1CCc2ccc(OCCCN3CCC(c4noc5cc(F)ccc45)CC3)cc2C1=O` [Compound 5, 7-(3-(4-(6-fluorobenzo[d]isoxazol-3-yl)piperidin-1-yl)propoxy)-2-methyl-3,4-dihydroisoquinolin-1(2H)-one]: the “affinity for 5-HT1A (in words)” value on 5-HT1A is recorded as “strong affinities”. Besides, the inhibition constant (Ki) at 5-HT1A (rat cortex membrane, 3H-8-OH-DPAT) is 2.4 nM; at 5-HT7 receptor (rat hypothalamus membrane, [3H]-5-CT), 5.9 nM; at Histamine H1 receptor (guinea pig cerebellum membrane, 3H-pyrilamine) it was over 2000 nM; at 5-HT2A (read-out: Ki (nM) 5-HT2A, rat cortex membrane, [3H]-Ketanserin), 0.1 nM. The “affinity for 5HT7 (in words)” value at 5-HT7 receptor is recorded as “high affinity”. Also, the “affinity for H1 (in words)” value on Histamine H1 receptor is “low affinity”. The ED50 in data set [1] (Mus musculus, po, read-out: Apomorphine induced clambering (ED50, po, mg/kg)) was found to be 0.05 mg/kg; in data set [2] (Rattus norvegicus, po, 1 h, read-out: Rat CAR ED50 (mg/kg)), 0.32 mg/kg; in the data set “in vivo”, 35 mg/kg. Also, in data set [1] (mice, compared with risperidone), the “improvement of apomorphine induced clambering symptoms (in words)” value was “effectively improve”. In addition, the “performance in the rat CAR model (in words)” value in [2] (rat, compared with risperidone) was “markedly better than risperidone”. Besides, the Catalepsy/Apomorphine induced clambering in the data set with catalepsy in mice (both, Kunming (KM)) amounted to 700. The “Catalepsy/MK-801 induced high activity” value with catalepsy in mice (both, Kunming (KM)) is listed as 875. Also, in the data set on catalepsy in mice, the “EPS in effective dosage (in words)” value is listed as “do not cause EPS”. The LD50 in [3] was found to be 258 mg/kg. Besides, the “LD50 (po, mg/kg)” value in the data set with mice was found to be 257 mg/kg. The median lethal dose (LD50) at 3 days in data set [4] worked out at 168 mg/kg. Also, on 5-HT2A, the “affinity for 5-HT2A (in words)” value is “strong affinities”.
